Patent publication US20080167282A1, “Use of Inhibitors of Steroid Activity for the Treatment of Substance Related Disorders” (priority 2005, published 2008)

Assay: Study on the cocaine addiction: case report of a patient treated for hirsutism
Assay type: in vivo, human
Conditions: cocaine user; 50 mg 1 cp daily; after 6 months of therapy (treatment lasted approximately 9 months)
Method: In the course of the follow up transaminases and hormones were assayed.

With `CC(=O)O[C@]1(C(C)=O)CC[C@H]2[C@@H]3C=C(Cl)C4=CC(=O)[C@@H]5C[C@@H]5[C@]4(C)[C@H]3CC[C@@]21C` [cyproterone acetate] the “cocaine use status during follow up” value was “drug free”.
